Experimental findings from patent US20260265304A1, “PEPTIDE INHIBITORS OF FOCAL ADHESION KINASE ACTIVITY AND USES THEREOF” (Arizona Board of Regents on Behalf of the University of …, priority 2019, published 2026) are described below.

One may read the IC50 as the point on the concentration scale where inhibition reaches its midpoint. As usually defined, the Kd is a measure of binding affinity in units of concentration.

The target in one data set is T1, trypsin (Bos taurus, UniProt P00760).
T1 construct: purchased ThermoFisher
T1 sequence (P00760 24-246): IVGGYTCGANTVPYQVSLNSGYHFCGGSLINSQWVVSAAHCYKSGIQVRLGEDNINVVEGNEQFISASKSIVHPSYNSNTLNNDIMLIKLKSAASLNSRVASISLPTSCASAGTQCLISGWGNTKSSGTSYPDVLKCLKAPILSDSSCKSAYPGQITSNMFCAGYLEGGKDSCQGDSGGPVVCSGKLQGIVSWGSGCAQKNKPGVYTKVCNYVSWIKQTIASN
The data set can be described thus: In vitro trypsin digest assay (trypsin-agarose beads, LC-MS). The conditions noted are these: trypsin-agarose beads in physiological buffer, read-out: t1/2 in trypsin digest (protease resistance) (converted). Type of data set: in vitro ADME. The protocol: Assays were performed using trypsin-agarose beads (ThermoFisher) and measurement of peptide concentration using LC-MS. Peptide half-lives were calculated using GraphPad Prism software.
Trypsin-agarose beads were used to test the potential cleavage of peptides in a physiological buffer and LC-MS was used as the analytical method to determine peptide concentration.

The test system of data set [1] is LX2 human liver stellate cells. The data set can be described thus: Anti-fibrotic activity in TGF-β-induced stellate cells (Western blot, morphology). Type of data set: cell-based. The protocol:
A. Western blot studies of LX2 cells treated with 2 ng/ml TGF-β for 17 h to induce pro-fibrotic phenotypes. […] Quantification of fibronectin results are shown in the lower panel. B. Morphological changes of LX2 cells after TGF-β and peptide treatment for 17 h. Images were captured using bright field microscopy.
Experiments were conducted to test the anti-fibrotic effects of stapled peptides targeting the FAK FAT domain (FIG. 13). TGF-β induction was performed in LX-2 human liver stellate cells to promote a pro-fibrotic phenotypic and differentiation to myofibroblast-like cells.
Background: A western blot detects proteins with antibodies after separation by electrophoresis.

For data set [2], the system named is SK-MEL-103 melanoma cells. The data set can be described thus: 3D Matrigel-on-top proliferation assay. Type of data set: cell-based. The conditions noted are these: for IC50: SK-MEL-103 melanoma cells, 3D Matrigel-on-top. The protocol: (§1) B. Competition FP experiment with 1907 showing inhibition of TAMRA-LD2 binding to FAT. C. SPR binding and selectivity analysis using WT FAT and Mutant FAT (L994E, 1936A) at the helix-protein interface. D. Flow cytometry analysis of Rhodamine-1907 (10 μM) cellular uptake in MDA-MB-453 breast cancer cells. E. Boyden-chamber invasion assays in SK-MEL-103 melanoma cells. F. 3D Matrigel-on-top proliferation assays in SK-MEL-103 melanoma cells.
(§2) B. 3D structure of negative control molecule (UACC-2020). C. 3D Matrigel-on-top cell proliferation data of stapled peptides in SK-MEL-103 melanoma cells.
(§3) A negative control myristoylated peptide (2020) was designed and synthesized based on non-active molecule 2014. Experiments were conducted to test the efficacy of these peptides in 3D proliferation assays using SK-MEL-103 melanoma cells. […] Furthermore, 2012 had no effects on the proliferation of normal HUVEC cells (IC50=NA) (FIG. 7).

The next data set relates to HUVEC cells. The data set can be described thus: 3D Matrigel-on-top proliferation assay in normal cells. The format is cell-based. Here is the method:
as §2, §3

The target of data set [3] is T2, FAK FAT domain (biotinylated Avitag-FAT protein) (Homo sapiens, UniProt Q05397).
T2 construct: biotinylated Avitag-FAT protein was diluted in running buffer
T2 sequence (Q05397 914-1045 limits assumed): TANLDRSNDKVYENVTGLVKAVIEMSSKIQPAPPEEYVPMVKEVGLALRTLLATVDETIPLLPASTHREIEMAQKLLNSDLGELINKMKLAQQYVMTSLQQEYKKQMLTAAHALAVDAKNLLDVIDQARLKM
In words: Surface plasmon resonance (SPR) binding to immobilised FAT protein. To be noted: FAT protein immobilised, peptide 200 μM-0.01 μM, 1:1 binding model; read-out: SPR KD.

The subject of data set [4] is MDA-MB-453 breast cancer cells. In words: Flow cytometry-based cell permeability assay. The conditions noted are these: MDA-MB-453 cells, 10 μM, compared to Rhodamine only control. The protocol: as §1
(§4) To further evaluate the activity of 1907, experiments were conducted that tested the peptide in a flow cytometry-based cell permeability assay. […] Experiments were also conducted to test the cellular efficacy in SK-MEL-103 melanoma cells.
Flow cytometry assays performed on the Canto II flow cytometer (BD Biosciences) were utilized to measure cellular uptake of TAMRA-tagged peptides. In brief, the instrument was properly gated using cells treated with TAMRA-only as a positive control. Also, cells treated with untagged peptide were used as a negative control to rule out non-specific signal. Cells were treated with TAMRA-tagged peptides for a duration of 2 h-48 h to measure cellular uptake. Permeability of peptide was reported as % positivity relative to TAMRA positive control and mean fluorescence intensity (MFI).
(In general: A flow cytometer gives signals particle by particle.)

Data set [5] concerns SK-MEL-103 melanoma cells. In words: Boyden-chamber invasion assay. Type of data set: cell-based. To be noted: SK-MEL-103, compared to Defactinib relative to compound KD. The protocol: as §1, §4

With `CCCCCCCCCCCCCC(=O)N[C@@H](CC(N)=O)C(=O)N[C@@H](CC(C)C)C(=O)N[C@]1(C)CCCCCCC=CCCC[C@@](C)(C(=O)N[C@@H](CCC(=O)O)C(=O)N[C@@H](CC(C)C)C(=O)N[C@@H](CC(N)=O)C(N)=O)NC(=O)[C@H](CC(C)C)NC(=O)[C@H](CC(C)C)NC(=O)[C@H](CCCNC(=N)N)NC(=O)[C@H](CC(=O)O)NC(=O)[C@H](CC(C)C)NC(=O)[C@H](CCC(=O)O)NC1=O` [Peptide 2012, Myristoyl-NLR8ELDRLLS5ELN-NH2], the half-life on trypsin is greater than 2880 min. In data set [1] (LX2 cells, 2 ng/ml TGF-β 17 h, peptide 10, 5, 2 μM pretreated 1 h), the “TGF-β-induced expression of fibronectin” value is “reduced the TGF-β-induced expression of fibronectin, a marker of fibrosis, in a dose-dependent manner”. For the same compound, in data set [1] (LX-2 cells, TGF-β and peptide treatment 17 h, bright field microscopy), the “morphological change of TGF-β-induced cells” value was “induced a morphological change”. Also, the IC50 in data set [2] turned out to be 5.5 µM. Moreover, the “3D proliferation IC50” value in the data set with HUVEC cells is listed as “no effects”. Further, the dissociation constant (Kd) in data set [3] is greater than 200 µM.

On to `CCN(CC)c1ccc2c(-c3ccccc3C(=O)NCCC(=O)N[C@@H](CC(N)=O)C(=O)N[C@@H](CC(C)C)C(=O)N[C@]3(C)CCCCCCC=CCCC[C@@](C)(C(=O)N[C@@H](CCC(=O)O)C(=O)N[C@@H](CC(C)C)C(=O)N[C@@H](CC(N)=O)C(N)=O)NC(=O)[C@H](CC(C)C)NC(=O)[C@H](CC(C)C)NC(=O)[C@H](CCCNC(=N)N)NC(=O)[C@H](CC(=O)O)NC(=O)[C@H](CC(C)C)NC(=O)[C@H](CCC(=O)O)NC3=O)c3ccc(=[N+](CC)CC)cc-3oc2c1` [Peptide 2016, RhoB-1907], for which the “cellular uptake / crossing of the cell membrane” value in data set [4] is listed as “successfully crossed the cell membrane”.

Take `CC(=O)N[C@@H](CC(N)=O)C(=O)N[C@@H](CC(C)C)C(=O)N[C@]1(C)CCCCCC/C=C/CCC[C@@](C)(C(=O)N[C@@H](CCC(=O)O)C(=O)N[C@@H](CC(C)C)C(=O)N[C@@H](CC(N)=O)C(N)=O)NC(=O)[C@H](CC(C)C)NC(=O)[C@H](CC(C)C)NC(=O)[C@H](CCCNC(=N)N)NC(=O)[C@H](CC(=O)O)NC(=O)[C@H](CC(C)C)NC(=O)[C@H](CCC(=O)O)NC1=O` [Peptide 1907, Ac-NLR8ELDRLLS5ELN-NH2]: on trypsin, the half-life was 942 min. For the same compound, in data set [5], the inhibition of invasion entry is given as “effectively inhibited”. Moreover, the “inhibition of 3D proliferation” value in data set [2] (SK-MEL-103, compared to Defactinib relative to compound KD) was “effectively inhibited”. Further, half-maximal inhibition in data set [2] (IC50) was put at 60 µM.
